The text below walks through data of US11753411B2, “Substituted pyrazolo[1,5-a]pyrimidines as TYK2 pseudokinase ligands” (Ventyx Biosciences, Inc., priority 2019, dated 2023).

In one series the test system is IFN-a/Jak1 Tyk2. Description: Co-stimulation assay in lysed whole blood: IFNa (JAK1/TYK2) stimulated STAT1 phosphorylation. It is filed as cell-based. Conditions: Homo sapiens, 20 min, 100 ng/mL IFNa (with 10 ng/mL GM-CSF), pSTAT by flow cytometry. The gist of the method:
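Lysed human whole blood (RBC-lysed, resuspended in cRPMI) pre-incubated with compound 1 h at 37 °C, then stimulated 20 min with IFNa 100 ng/mL plus GM-CSF 10 ng/mL (final). Fixed, permeabilised, stained for pSTAT1 (PE) and pSTAT5 (AF488); flow cytometry read-out, ≥5,000–10,000 cells acquired.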

The nature of the next series: Hepatocyte stability. Type of series: in vitro ADME, human. The settings on record: hepatocytes; statement in words. How it is done:
Metabolic stability of compounds can be evaluated using human, rat, mouse, or other animal hepatocytes to predict intrinsic clearance. Human LiverPool™ 20-donor and animal cryopreserved hepatocytes were obtained from BioreclamationIVT.
Cryopreserved hepatocytes were removed from a liquid nitrogen tank and thawed in a 37° C. water bath. As soon as the cells pull away from the vial wall, they were decanted into 48 mL of warm HT medium. Cells were centrifuged for four minutes at 420 rpm (50 g). After removing the supernatant, the pellet was re-suspended in warm DMEM medium. Cell density was counted by a hemacytometer.
The assay was carried out in 96-well microtiter plates. Compound 5 was incubated for 0, 60, 120, and 180 minutes at 37° C. with hepatocytes. Reaction mixtures (50 μL) contain a final concentration of 1 μM test compound, 0.5 million cells/mL hepatocytes in the DMEM medium. At each of the time points (for example, 0, 1, 2, and 3 hours), 200 μL of quench solution (100% acetonitrile with 0.1% formic acid) with internal standard was transferred to each well. Midazolam was included as a positive control to verify assay performance. Plates were sealed and centrifuged at 4° C. for 15 minutes at 4000 rpm. The supernatant was transferred to fresh plates for LC/MS/MS analysis.
All samples were analyzed on LC/MS/MS using an AB Sciex API 4000 instrument, coupled to a Shimadzu LC-20AD LC Pump system. Analytical samples were separated using a Waters Atlantis T3 dC18 reverse phase HPLC column (20 mm×2.1 mm) at a flow rate of […]. The mobile phase consists of 0.1% formic acid in water (solvent A) and 0.1% formic acid in 100% acetonitrile (solvent B).
The extent of metabolism was calculated as the disappearance of the test compound, compared to the 0-min control reaction incubations. Initial rates are calculated for the compound concentration and used to determine t½ values and subsequently, the intrinsic clearance, CLint=(0.693)(1/t½ (min))(mL incubation/million cells).

The structures appear in SMILES notation.

Regarding `CNc1cc(Nc2cc(F)cc3c2OCCO3)nc2c(NC(=O)N[C@@H]3C[C@@H]3F)cnn12` [Compound 5, 1-(5-((7-fluoro-2,3-dihydrobenzo[b][1,4]dioxin-5-yl)amino)-7-(methylamino)pyrazolo[1,5-a]pyrimidin-3-yl)-3-((1R,2S)-2-fluorocyclopropyl)urea], the half-maximal inhibitory concentration (IC50) in the series with IFN-a/Jak1 Tyk2 is < 1000 nM. The “metabolic stability compared to the corresponding amide compound” value in the series “Hepatocyte stability” was “unexpected high metabolic stability”.
